Assay results reported in patent US20240425456A1, “DEGRADER” (ASKA PHARMACEUTICAL CO., LTD., priority 2021, published 2024).

Tests used:
Type in all cases: cell-based
JAK1 = biological target: T1, JAK1 (Homo sapiens, UniProt P23458); assay: Degradation-inducing effect on JAK in Jurkat cells (chemiluminescent Western blotting), JAK1; conditions: 1 μmol/L, 6 hours, corrected by GAPDH, DMSO as 100%
T1 construct: endogenous in cells; host or cells: Jurkat cells
Description: (§1) The degradation-inducing effect of the compound of the present invention on JAK family proteins was evaluated in vitro using Jurkat cells, of which cell line was derived from human leukemic T cells.
(§2) JAK1, JAK2, JAK3, and Tyk2-positive Jurkat cells were seeded at a density of 1×10^5 cells/mL on 10 cm diameter dishes and then cultured in RPMI 1640 medium (FUJIFILM Wako Pure Chemical: catalog number: 189-02025) containing 10% FBS (Thermo Fisher Scientific: catalog number: 10437-028) at 5% CO2 and 37° C. for 3 days. Then, each of the test compounds (compounds of Examples 1 to 11 and Comparative Examples 1 and 2) was added to the dish at a final concentration of 1 μmol/L, and the cells were cultured in the presence of the test compound for 6 hours. After that, the cell culture medium was collected in a 15 mL centrifuge tube (1000 rpm (240× g), room temperature, 5 min), followed by washing with PBS (1000 rpm (240× g), room temperature, 5 min). Then, the cells in the centrifuge tube were collected in a 1.5 mL tube (3000 rpm (860× g), 4° C., 5 min), lysed using RIPA buffer (25 mmol/L Tris-HCl (pH 7.4), 25 mmol/L NaCl, 0.5 mmol/L EGTA (pH 8.0), 0.1% SDS, 1% protease inhibitor), sonicated at ice temperature (cycles of [7.5 sec sonication, 5 sec off] for 5 min) and subjected to centrifugation (15000 rpm (21600× g), 4° C., 30 min). The thus-obtained supernatant was used as the protein solution. Using the BCA protein assay kit (Thermo Fisher Scientific: catalog number: 23225), the protein concentration of the protein solution of each test compound was measured according to the kit instructions, and then adjusted to 1.4 mg/mL with RIPA buffer. The thus-adjusted protein solutions were subjected to a fully automated Western blotting device (Simple Westerns Wes: proteinSimple) to detect the protein levels (JAK1, JAK2, JAK3, and Tyk2 as the target proteins, and GAPDH (Glyceraldehyde 3-phosphate dehydrogenase) as the internal standard protein) in the protein solutions by chemiluminescent Western blotting.
(§3) Furthermore, the luminescence levels of JAK1, JAK2, JAK3, and Tyk2 detected by chemiluminescent Western blotting were quantified numerically by using an analysis software (Compass software for Simple Western (version 4.0.0)) attached to the fully automated Western blotting device. The numerical values of the quantified luminescence levels were corrected by the protein levels of the internal standard protein, i.e., GAPDH, (target protein levels/GAPDH protein levels), and compared among the test compounds with dimethyl sulfoxide (DMSO) as 100%.

JAK2 = biological target: T2, JAK2 (Homo sapiens, UniProt O60674); assay: Degradation-inducing effect on JAK in Jurkat cells (chemiluminescent Western blotting), JAK2; conditions: 1 μmol/L, 6 hours, corrected by GAPDH, DMSO as 100%
T2 construct: endogenous in cells; host or cells: Jurkat cells
Description: as §1, §2, §3

JAK3 = biological target: T3, JAK3 (Homo sapiens, UniProt P52333); assay: Degradation-inducing effect on JAK in Jurkat cells (chemiluminescent Western blotting), JAK3; conditions: 1 μmol/L, 6 hours, corrected by GAPDH, DMSO as 100%, read-out: JAK protein ratio of Jurkat cells after treatment of each test compound: JAK3
T3 construct: endogenous in cells; host or cells: Jurkat cells
T3 sequence (P52333 1-1124): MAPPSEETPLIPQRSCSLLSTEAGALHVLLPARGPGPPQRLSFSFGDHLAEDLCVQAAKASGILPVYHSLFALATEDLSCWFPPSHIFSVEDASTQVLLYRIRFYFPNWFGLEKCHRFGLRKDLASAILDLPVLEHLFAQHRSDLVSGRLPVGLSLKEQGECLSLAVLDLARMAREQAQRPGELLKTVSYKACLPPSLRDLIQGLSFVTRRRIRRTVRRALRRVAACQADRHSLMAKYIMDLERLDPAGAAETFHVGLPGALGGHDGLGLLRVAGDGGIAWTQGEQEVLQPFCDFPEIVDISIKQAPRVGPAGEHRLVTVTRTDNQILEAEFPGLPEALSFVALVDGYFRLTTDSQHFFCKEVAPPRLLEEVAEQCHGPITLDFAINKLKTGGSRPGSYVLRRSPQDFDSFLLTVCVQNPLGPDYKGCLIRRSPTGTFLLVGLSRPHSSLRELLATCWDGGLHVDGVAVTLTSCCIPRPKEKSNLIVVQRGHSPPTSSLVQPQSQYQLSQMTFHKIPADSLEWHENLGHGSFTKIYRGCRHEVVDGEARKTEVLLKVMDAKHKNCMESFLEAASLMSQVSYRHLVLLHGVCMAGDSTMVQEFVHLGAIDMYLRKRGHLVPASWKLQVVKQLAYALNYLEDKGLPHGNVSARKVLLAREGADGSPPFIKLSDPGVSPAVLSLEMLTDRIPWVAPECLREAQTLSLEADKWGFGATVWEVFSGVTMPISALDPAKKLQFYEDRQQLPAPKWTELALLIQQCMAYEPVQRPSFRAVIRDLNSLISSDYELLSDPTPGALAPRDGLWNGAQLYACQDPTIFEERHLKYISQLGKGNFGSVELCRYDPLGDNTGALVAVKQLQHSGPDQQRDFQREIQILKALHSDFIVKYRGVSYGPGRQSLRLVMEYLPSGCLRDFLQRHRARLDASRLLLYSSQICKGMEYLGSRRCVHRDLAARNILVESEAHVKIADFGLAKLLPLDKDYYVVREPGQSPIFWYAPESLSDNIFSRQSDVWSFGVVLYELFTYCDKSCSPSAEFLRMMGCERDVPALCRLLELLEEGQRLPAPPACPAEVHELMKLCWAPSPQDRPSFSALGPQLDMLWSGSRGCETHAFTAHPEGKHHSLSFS
Description: as §1, §2, §3

Tyk2 = biological target: T4, Tyk2 (Homo sapiens, UniProt P29597); assay: Degradation-inducing effect on JAK in Jurkat cells (chemiluminescent Western blotting), Tyk2; conditions: 1 μmol/L, 6 hours; for JAK protein ratio of Jurkat cells after treatment of each test compound: Tyk2: corrected by GAPDH, DMSO as 100%
T4 construct: endogenous in cells; host or cells: Jurkat cells
Description: as §1, §2, §3

T2 sequence (O60674 whole entry): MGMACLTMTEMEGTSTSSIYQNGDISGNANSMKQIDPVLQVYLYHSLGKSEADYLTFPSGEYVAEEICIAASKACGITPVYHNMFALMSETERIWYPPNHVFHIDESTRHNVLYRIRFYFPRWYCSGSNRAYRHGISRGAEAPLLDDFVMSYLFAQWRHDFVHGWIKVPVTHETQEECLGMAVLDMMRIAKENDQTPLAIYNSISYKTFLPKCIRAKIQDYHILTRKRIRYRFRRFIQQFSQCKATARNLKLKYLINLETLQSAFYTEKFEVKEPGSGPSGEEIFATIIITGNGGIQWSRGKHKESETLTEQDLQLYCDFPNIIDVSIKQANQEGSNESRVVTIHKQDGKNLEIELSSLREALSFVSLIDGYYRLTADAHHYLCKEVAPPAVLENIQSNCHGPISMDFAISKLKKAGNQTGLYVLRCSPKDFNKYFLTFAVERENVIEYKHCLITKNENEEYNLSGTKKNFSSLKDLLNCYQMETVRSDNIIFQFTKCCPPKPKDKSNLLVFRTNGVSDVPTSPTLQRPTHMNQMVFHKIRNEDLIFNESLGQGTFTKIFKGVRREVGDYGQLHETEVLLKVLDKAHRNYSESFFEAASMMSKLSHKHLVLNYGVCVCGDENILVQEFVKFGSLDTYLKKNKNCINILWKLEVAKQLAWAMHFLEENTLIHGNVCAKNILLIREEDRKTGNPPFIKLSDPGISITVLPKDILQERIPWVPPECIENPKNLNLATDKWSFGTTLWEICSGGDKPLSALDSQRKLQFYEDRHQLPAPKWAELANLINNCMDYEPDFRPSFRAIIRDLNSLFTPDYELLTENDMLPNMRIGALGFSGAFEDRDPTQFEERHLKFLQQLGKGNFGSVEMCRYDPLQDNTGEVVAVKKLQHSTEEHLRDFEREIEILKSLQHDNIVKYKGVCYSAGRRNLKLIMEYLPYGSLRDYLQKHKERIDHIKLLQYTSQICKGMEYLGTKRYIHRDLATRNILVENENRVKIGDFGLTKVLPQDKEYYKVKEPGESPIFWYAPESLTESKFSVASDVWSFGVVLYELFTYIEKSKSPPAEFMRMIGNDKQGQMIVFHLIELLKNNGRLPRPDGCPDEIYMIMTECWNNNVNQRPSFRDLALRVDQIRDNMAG
T1 sequence (P23458 whole entry): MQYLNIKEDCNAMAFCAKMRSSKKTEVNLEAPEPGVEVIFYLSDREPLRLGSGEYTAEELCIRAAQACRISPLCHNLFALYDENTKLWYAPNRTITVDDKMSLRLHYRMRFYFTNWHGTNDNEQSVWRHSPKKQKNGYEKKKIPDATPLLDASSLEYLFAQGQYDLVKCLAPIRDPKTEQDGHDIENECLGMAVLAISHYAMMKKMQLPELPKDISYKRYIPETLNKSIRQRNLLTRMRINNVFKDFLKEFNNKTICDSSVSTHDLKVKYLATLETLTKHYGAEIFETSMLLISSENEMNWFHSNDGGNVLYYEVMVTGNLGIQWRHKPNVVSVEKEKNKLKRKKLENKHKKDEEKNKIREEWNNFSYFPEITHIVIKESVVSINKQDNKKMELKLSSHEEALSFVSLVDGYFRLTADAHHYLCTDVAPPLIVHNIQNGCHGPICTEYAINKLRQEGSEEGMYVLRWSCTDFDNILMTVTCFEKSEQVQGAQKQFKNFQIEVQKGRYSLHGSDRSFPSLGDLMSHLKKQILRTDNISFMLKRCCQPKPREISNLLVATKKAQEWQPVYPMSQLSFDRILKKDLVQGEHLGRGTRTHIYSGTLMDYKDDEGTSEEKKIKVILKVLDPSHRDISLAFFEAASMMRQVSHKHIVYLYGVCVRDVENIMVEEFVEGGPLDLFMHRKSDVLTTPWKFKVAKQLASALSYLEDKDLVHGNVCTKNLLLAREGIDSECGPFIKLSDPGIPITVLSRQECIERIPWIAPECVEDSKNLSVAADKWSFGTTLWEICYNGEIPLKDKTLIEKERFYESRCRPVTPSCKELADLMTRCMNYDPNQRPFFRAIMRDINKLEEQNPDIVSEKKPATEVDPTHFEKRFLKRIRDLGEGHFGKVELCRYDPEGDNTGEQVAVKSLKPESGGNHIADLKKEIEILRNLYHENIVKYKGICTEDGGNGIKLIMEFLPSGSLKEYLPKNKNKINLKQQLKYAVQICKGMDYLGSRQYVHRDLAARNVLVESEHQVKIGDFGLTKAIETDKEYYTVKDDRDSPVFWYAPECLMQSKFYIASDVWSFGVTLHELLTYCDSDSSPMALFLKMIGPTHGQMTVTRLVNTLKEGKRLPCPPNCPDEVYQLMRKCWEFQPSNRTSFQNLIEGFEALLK
T4 sequence (P29597 whole entry): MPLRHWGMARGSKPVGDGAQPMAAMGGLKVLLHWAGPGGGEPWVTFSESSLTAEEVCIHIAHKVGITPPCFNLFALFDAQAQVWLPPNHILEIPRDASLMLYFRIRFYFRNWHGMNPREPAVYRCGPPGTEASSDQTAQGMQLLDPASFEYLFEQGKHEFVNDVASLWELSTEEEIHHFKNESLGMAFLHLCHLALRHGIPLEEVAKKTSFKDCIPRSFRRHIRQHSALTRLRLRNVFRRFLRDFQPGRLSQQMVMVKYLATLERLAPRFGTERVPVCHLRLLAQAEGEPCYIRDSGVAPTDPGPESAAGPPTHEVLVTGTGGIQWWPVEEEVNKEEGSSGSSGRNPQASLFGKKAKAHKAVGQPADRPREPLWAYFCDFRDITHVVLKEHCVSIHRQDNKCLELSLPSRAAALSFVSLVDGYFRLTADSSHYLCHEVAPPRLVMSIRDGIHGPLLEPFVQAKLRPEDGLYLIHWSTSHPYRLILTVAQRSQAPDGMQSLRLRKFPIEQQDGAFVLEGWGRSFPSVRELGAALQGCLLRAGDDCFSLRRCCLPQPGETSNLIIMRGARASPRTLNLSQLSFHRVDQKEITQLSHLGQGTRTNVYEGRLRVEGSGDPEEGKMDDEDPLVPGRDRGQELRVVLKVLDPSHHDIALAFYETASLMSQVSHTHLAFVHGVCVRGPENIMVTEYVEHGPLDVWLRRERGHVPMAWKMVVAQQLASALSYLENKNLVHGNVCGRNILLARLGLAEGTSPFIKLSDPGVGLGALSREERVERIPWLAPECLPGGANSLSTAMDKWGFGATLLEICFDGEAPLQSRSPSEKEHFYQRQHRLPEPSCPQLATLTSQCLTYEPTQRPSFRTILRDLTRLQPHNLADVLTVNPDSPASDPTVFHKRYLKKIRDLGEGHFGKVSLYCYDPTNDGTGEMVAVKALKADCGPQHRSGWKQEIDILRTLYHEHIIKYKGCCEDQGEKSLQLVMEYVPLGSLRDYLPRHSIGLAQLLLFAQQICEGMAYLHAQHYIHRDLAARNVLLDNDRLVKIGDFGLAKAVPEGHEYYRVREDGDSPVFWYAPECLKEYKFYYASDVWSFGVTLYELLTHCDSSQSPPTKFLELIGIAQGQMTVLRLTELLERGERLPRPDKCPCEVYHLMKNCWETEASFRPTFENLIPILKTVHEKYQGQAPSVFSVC

| JAK protein ratio of Jurkat cells after treatment of each test compound: JAK1 (JAK1) [%] | JAK protein ratio of Jurkat cells after treatment of each test compound: JAK2 (JAK2) [%] | JAK3 protein level relative to DMSO at 1 µM (JAK3) [%] | protein level of Tyk2 (in words) (Tyk2) | JAK protein ratio of Jurkat cells after treatment of each test compound: Tyk2 (Tyk2) [%] | SMILES |
| --- | --- | --- | --- | --- | --- |
| 92.4 | 87.6 | 83.3 | not reduced | 78.9 | CNC(=O)c1cnc(Nc2ccc(F)cn2)cc1Nc1cccc(C(=O)NCCCCCCCCCC(=O)N[C@H](C(=O)N2C[C@H](O)C[C@H]2C(=O)NCc2ccc(-c3scnc3C)cc2)C(C)(C)C)c1OC [Comparative Example 1, 6-((5-Fluoropyridin-2-yl)amino)-4-((3-((10-(((S)-1-((2S,4R)-4-hydroxy 2-((4-(4-methylthiazol-5-yl)benzyl)carbamoyl)pyrrolidin-1-yl)-3,3-dimethyl-1-oxobutan-2-yl)amino)-10-oxodecyl)carbamoyl)-2-methoxyphenyl)amino)-N-methylnicotinamide, reference compound] |
| 90.5 | 114.1 | 111 | – | 31.2 | CNC(=O)c1cnc(Nc2ccc(C(=O)NCCCCCCCCCC(=O)N[C@H](C(=O)N3C[C@H](O)C[C@H]3C(=O)NCc3ccc(-c4scnc4C)cc3)C(C)(C)C)cn2)cc1Nc1cccc(-c2ncn(C)n2)c1OC [Example 10, 6-((5-((10-(((S)-1-((2S,4R)-4-hydroxy-2-((4-(4-methylthiazol-5-yl)benzyl)carbamoyl)pyrrolidin-1-yl)-3,3-dimethyl-1-oxobutan-2-yl)amino)-10-oxodecyl)carbamoyl)pyridin-2-yl)amino)-4-((2-methoxy-3-(1-methyl-^1H-1,2,4-triazol-3-yl)phenyl)amino)-N-methylnicotinamide] |
| 129.1 | 158.8 | 129 | – | 41.7 | CNC(=O)c1cnc(Nc2ccc(C(=O)NCCCCCCCCC(=O)N[C@H](C(=O)N3C[C@H](O)C[C@H]3C(=O)NCc3ccc(-c4scnc4C)cc3)C(C)(C)C)cn2)cc1Nc1cccc(C(=O)NC)c1OC [Example 4, 6-((5-((9-(((S)-1-((2S,4R)-4-Hydroxy-2-((4-(4-methylthiazol-5-yl)benzyl)carbamoyl)pyrrolidin-1-yl)-3,3-dimethyl-1-oxobutan-2-yl)amino)-9-oxononyl)carbamoyl)pyridin-2-yl)amino)-4-((2-methoxy-3-(methylcarbamoyl)phenyl)amino)-N-methylnicotinamide] |
| 114.4 | 132.2 | 103 | – | 55.1 | CNC(=O)c1cnc(Nc2ccc(C(=O)NCCCCCCCCCC(=O)N[C@H](C(=O)N3C[C@H](O)C[C@H]3C(=O)NCc3ccc(-c4scnc4C)cc3)C(C)(C)C)cn2)cc1Nc1cccc(C(=O)NCCO)c1OC [Example 11, 6-((5-((10-(((S)-1-((2S,4R)-4-hydroxy-2-((4-(4-methylthiazol-5-yl)benzyl)carbamoyl)pyrrolidin-1-yl)-3,3-dimethyl-1-oxobutan-2-yl)amino)-10-oxodecyl)carbamoyl)pyridin-2-yl)amino)-4-((3-((2-hydroxyethyl)carbamoyl)-2-methoxyphenyl)amino)-N-methylnicotinamide] |
| 139.2 | 112.6 | 118 | – | 48.8 | CNC(=O)c1cnc(Nc2ccc(C(=O)NCCCCCC(=O)N[C@H](C(=O)N3C[C@H](O)C[C@H]3C(=O)NCc3ccc(-c4scnc4C)cc3)C(C)(C)C)cn2)cc1Nc1cccc(C(=O)NC)c1OC [Example 2, 6-((5-((6-(((S)-1-((2S,4R)-4-Hydroxy-2-((4-(4-methylthiazol-5-yl)benzyl)carbamoyl)pyrrolidin-1-yl)-3,3-dimethyl-1-oxobutan-2-yl)amino)-6-oxohexyl)carbamoyl)pyridin-2-yl)amino)-4-((2-methoxy-3-(methylcarbamoyl)phenyl)amino)-N-methylnicotinamide] |
